Measured values as given in PubChem BioAssay (NCI).
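All cell lines were grown in 96-well plates and treated with compound for 48 hours. GI50 is the concentration that inhibits growth by half. TGI: total growth inhibition.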

Legend:
Assay in all cases: NCI tumour cell line growth inhibition, 48 h
OVCAR-8 ovarian = test system: OVCAR-8 ovarian
SF-539 CNS = test system: SF-539 CNS
SF-268 CNS = test system: SF-268 CNS
KM12 colon = test system: KM12 colon
SN12C renal = test system: SN12C renal
A549 NSCLC = test system: A549 NSCLC
NCI-H23 lung = test system: NCI-H23 lung
HCC-2998 colon = test system: HCC-2998 colon
HS 578T breast = test system: HS 578T breast
CAKI-1 renal = test system: CAKI-1 renal
SR leukemia = test system: SR leukemia
SK-MEL-5 melanoma = test system: SK-MEL-5 melanoma
UACC-257 melanoma = test system: UACC-257 melanoma
HT29 colon = test system: HT29 colon
COLO 205 colon = test system: COLO 205 colon
OVCAR-3 ovarian = test system: OVCAR-3 ovarian
MDA-MB-231 breast = test system: MDA-MB-231 breast
M14 melanoma = test system: M14 melanoma
786-0 renal = test system: 786-0 renal
NCI-H522 lung = test system: NCI-H522 lung
HCT-15 colon = test system: HCT-15 colon
NCI/ADR-RES ovarian = test system: NCI/ADR-RES ovarian
OVCAR-4 ovarian = test system: OVCAR-4 ovarian
DU-145 prostate = test system: DU-145 prostate
UO-31 renal = test system: UO-31 renal
HOP-92 NSCLC = test system: HOP-92 NSCLC
HL-60(TB) leukemia = test system: HL-60(TB) leukemia
SK-OV-3 ovarian = test system: SK-OV-3 ovarian
MOLT-4 leukemia = test system: MOLT-4 leukemia
A498 renal = test system: A498 renal
SNB-75 CNS = test system: SNB-75 CNS
MALME-3M melanoma = test system: MALME-3M melanoma
NCI-H226 lung = test system: NCI-H226 lung
HCT-116 colon = test system: HCT-116 colon
PC-3 prostate = test system: PC-3 prostate
CCRF-CEM leukemia = test system: CCRF-CEM leukemia
T-47D breast = test system: T-47D breast
MCF7 breast = test system: MCF7 breast
SW-620 colon = test system: SW-620 colon
BT-549 breast = test system: BT-549 breast
RXF 393 renal = test system: RXF 393 renal
ACHN renal = test system: ACHN renal
EKVX NSCLC = test system: EKVX NSCLC
SK-MEL-28 melanoma = test system: SK-MEL-28 melanoma
RPMI-8226 leukemia = test system: RPMI-8226 leukemia
SNB-19 CNS = test system: SNB-19 CNS
U251 CNS = test system: U251 CNS
K-562 leukemia = test system: K-562 leukemia
NCI-H460 lung = test system: NCI-H460 lung
TK-10 renal = test system: TK-10 renal
UACC-62 melanoma = test system: UACC-62 melanoma
IGROV1 ovarian = test system: IGROV1 ovarian
SF-295 CNS = test system: SF-295 CNS
SK-MEL-2 melanoma = test system: SK-MEL-2 melanoma
MDA-MB-435 = test system: MDA-MB-435
HOP-62 NSCLC = test system: HOP-62 NSCLC
OVCAR-5 ovarian = test system: OVCAR-5 ovarian
LOX IMVI melanoma = test system: LOX IMVI melanoma

O=C(N/N=C\c1ccc([N+](=O)[O-])cc1)c1ccc2nc(-c3ccc(Br)cc3)[nH]c2c1
GI50 (OVCAR-8 ovarian): 979 nM
TGI (OVCAR-8 ovarian): 4620 nM
GI50 (SF-539 CNS): 1920 nM
TGI (SF-539 CNS): 7900 nM
GI50 (SF-268 CNS): 3870 nM
TGI (SF-268 CNS): 96900 nM
GI50 (KM12 colon): 1200 nM
TGI (KM12 colon): 9300 nM
GI50 (SN12C renal): 1220 nM
TGI (SN12C renal): 14100 nM
GI50 (A549 NSCLC): 1610 nM
TGI (A549 NSCLC): > 31200 nM
GI50 (NCI-H23 lung): 398 nM
TGI (NCI-H23 lung): 3160 nM
GI50 (HCC-2998 colon): 1300 nM
TGI (HCC-2998 colon): 3960 nM
GI50 (HS 578T breast): 1590 nM
TGI (HS 578T breast): 17000 nM
GI50 (CAKI-1 renal): 1670 nM
TGI (CAKI-1 renal): 22600 nM
GI50 (SR leukemia): 891 nM
TGI (SR leukemia): 4550 nM
GI50 (SK-MEL-5 melanoma): 912 nM
TGI (SK-MEL-5 melanoma): 2880 nM
GI50 (UACC-257 melanoma): 1260 nM
TGI (UACC-257 melanoma): 6350 nM
GI50 (HT29 colon): 939 nM
TGI (HT29 colon): 2680 nM
GI50 (COLO 205 colon): 842 nM
TGI (COLO 205 colon): 2100 nM
GI50 (OVCAR-3 ovarian): 3080 nM
TGI (OVCAR-3 ovarian): 7950 nM
GI50 (MDA-MB-231 breast): 2930 nM
TGI (MDA-MB-231 breast): 12000 nM
GI50 (M14 melanoma): 1400 nM
TGI (M14 melanoma): 6690 nM
GI50 (786-0 renal): 2920 nM
TGI (786-0 renal): 13000 nM
GI50 (NCI-H522 lung): 903 nM
TGI (NCI-H522 lung): 2920 nM
GI50 (HCT-15 colon): 1220 nM
TGI (HCT-15 colon): 14800 nM
GI50 (NCI/ADR-RES ovarian): 18500 nM
TGI (NCI/ADR-RES ovarian): > 100000 nM
GI50 (OVCAR-4 ovarian): 1450 nM
TGI (OVCAR-4 ovarian): > 43000 nM
GI50 (DU-145 prostate): 1630 nM
TGI (DU-145 prostate): > 54200 nM
GI50 (UO-31 renal): 2160 nM
TGI (UO-31 renal): > 51100 nM
GI50 (HOP-92 NSCLC): 2580 nM
TGI (HOP-92 NSCLC): 9260 nM
GI50 (HL-60(TB) leukemia): 801 nM
TGI (HL-60(TB) leukemia): 4960 nM
GI50 (SK-OV-3 ovarian): 2900 nM
TGI (SK-OV-3 ovarian): > 70700 nM
GI50 (MOLT-4 leukemia): 912 nM
TGI (MOLT-4 leukemia): 4390 nM
GI50 (A498 renal): 1620 nM
TGI (A498 renal): 8340 nM
GI50 (SNB-75 CNS): 3790 nM
TGI (SNB-75 CNS): 20000 nM
GI50 (MALME-3M melanoma): 1270 nM
TGI (MALME-3M melanoma): 4630 nM
GI50 (NCI-H226 lung): 2580 nM
TGI (NCI-H226 lung): > 54700 nM
GI50 (HCT-116 colon): 1020 nM
TGI (HCT-116 colon): 3680 nM
GI50 (PC-3 prostate): 1300 nM
TGI (PC-3 prostate): 9400 nM
GI50 (CCRF-CEM leukemia): 1340 nM
TGI (CCRF-CEM leukemia): 8010 nM
GI50 (T-47D breast): 955 nM
TGI (T-47D breast): 3280 nM
GI50 (MCF7 breast): 704 nM
TGI (MCF7 breast): 2260 nM
GI50 (SW-620 colon): 1270 nM
TGI (SW-620 colon): 4950 nM
GI50 (BT-549 breast): 911 nM
TGI (BT-549 breast): 3400 nM
GI50 (RXF 393 renal): 1130 nM
TGI (RXF 393 renal): 3790 nM
GI50 (ACHN renal): 1920 nM
TGI (ACHN renal): > 51700 nM
GI50 (EKVX NSCLC): 1810 nM
TGI (EKVX NSCLC): 97500 nM
GI50 (SK-MEL-28 melanoma): 1900 nM
TGI (SK-MEL-28 melanoma): 11700 nM
GI50 (RPMI-8226 leukemia): 875 nM
TGI (RPMI-8226 leukemia): 2880 nM
GI50 (SNB-19 CNS): 2290 nM
TGI (SNB-19 CNS): 39600 nM
GI50 (U251 CNS): 1110 nM
TGI (U251 CNS): 3410 nM
GI50 (K-562 leukemia): 882 nM
TGI (K-562 leukemia): 4180 nM
GI50 (NCI-H460 lung): 914 nM
TGI (NCI-H460 lung): 2530 nM
GI50 (TK-10 renal): 2960 nM
TGI (TK-10 renal): 26000 nM
GI50 (UACC-62 melanoma): 1610 nM
TGI (UACC-62 melanoma): 14500 nM
GI50 (IGROV1 ovarian): 1610 nM
TGI (IGROV1 ovarian): 14800 nM
GI50 (SF-295 CNS): 1300 nM
TGI (SF-295 CNS): 13400 nM
GI50 (SK-MEL-2 melanoma): 3990 nM
TGI (SK-MEL-2 melanoma): 16600 nM
GI50 (MDA-MB-435): 1420 nM
TGI (MDA-MB-435): 5060 nM
GI50 (HOP-62 NSCLC): 1900 nM
TGI (HOP-62 NSCLC): 10500 nM
GI50 (OVCAR-5 ovarian): 2630 nM
TGI (OVCAR-5 ovarian): > 58800 nM
GI50 (LOX IMVI melanoma): 978 nM
TGI (LOX IMVI melanoma): 3140 nM
